ChEMBL document CHEMBL1909046, “DrugMatrix in vitro pharmacology data”

Assays:
[1] = target: Cytochrome P450 2E1 (Homo sapiens, UniProt P05181); conditions: bti-tn-5b1-4; note: in other assays of this panel Not Active means under 50% inhibition at 10 µM
[2] = target: T1, Receptor-type tyrosine-protein phosphatase C (Homo sapiens, UniProt P08575); design: species or system Escherichia coli;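 note: inhibition of CD45 enzyme activity measured using DiFMUP as substrate; in other assays of this panel Not Active means under 50% inhibition at 10 µM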
T1 sequence (P08575 whole entry): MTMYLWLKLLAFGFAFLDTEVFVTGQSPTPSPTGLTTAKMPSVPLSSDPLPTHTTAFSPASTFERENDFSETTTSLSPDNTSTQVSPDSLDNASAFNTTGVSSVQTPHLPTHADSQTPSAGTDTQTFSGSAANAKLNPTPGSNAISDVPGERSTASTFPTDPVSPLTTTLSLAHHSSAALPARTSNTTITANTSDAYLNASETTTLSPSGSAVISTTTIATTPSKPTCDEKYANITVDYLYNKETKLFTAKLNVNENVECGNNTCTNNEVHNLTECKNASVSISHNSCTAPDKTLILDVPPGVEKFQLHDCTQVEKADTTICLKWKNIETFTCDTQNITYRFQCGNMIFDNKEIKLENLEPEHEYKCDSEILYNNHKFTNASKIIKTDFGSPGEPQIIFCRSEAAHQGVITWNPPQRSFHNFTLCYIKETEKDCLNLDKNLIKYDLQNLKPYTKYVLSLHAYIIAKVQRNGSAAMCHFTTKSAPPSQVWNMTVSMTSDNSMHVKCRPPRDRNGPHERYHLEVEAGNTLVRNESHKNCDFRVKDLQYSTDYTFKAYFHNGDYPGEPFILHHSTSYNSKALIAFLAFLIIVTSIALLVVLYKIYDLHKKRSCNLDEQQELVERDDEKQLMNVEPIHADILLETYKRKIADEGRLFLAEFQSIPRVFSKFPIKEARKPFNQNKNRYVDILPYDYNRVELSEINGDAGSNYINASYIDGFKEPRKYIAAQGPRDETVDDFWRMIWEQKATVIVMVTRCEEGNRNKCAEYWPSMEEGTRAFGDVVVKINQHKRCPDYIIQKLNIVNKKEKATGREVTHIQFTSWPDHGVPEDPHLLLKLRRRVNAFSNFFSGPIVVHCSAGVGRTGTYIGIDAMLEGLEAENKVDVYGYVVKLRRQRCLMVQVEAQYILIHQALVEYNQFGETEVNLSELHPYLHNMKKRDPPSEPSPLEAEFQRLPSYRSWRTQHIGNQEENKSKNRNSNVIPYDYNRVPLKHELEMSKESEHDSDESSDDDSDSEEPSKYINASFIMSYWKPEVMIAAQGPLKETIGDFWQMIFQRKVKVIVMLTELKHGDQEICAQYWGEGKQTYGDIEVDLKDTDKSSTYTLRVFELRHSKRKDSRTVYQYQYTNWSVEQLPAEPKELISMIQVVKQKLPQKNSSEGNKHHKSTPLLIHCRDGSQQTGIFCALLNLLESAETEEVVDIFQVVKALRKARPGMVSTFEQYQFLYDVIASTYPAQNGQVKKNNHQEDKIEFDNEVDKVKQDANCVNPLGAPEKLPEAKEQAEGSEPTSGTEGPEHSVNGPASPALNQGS

[3] = target: T2, C-X-C chemokine receptor type 1 (Homo sapiens, UniProt P25024); note: in other assays of this panel Not Active means under 50% inhibition at 10 µM
T2 sequence (P25024 whole entry): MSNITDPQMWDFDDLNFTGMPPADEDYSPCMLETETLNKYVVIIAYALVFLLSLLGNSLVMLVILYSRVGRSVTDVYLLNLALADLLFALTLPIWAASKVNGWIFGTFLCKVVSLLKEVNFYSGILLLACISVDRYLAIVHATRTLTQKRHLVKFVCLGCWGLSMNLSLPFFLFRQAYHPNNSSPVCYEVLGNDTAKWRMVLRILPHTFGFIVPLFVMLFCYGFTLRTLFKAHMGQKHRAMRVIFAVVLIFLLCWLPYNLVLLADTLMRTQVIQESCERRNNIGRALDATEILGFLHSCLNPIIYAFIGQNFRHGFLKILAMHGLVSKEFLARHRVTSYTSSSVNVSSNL

[4] = target: T3, Neuropeptide Y receptor type 2 (Homo sapiens, UniProt P49146); assay type: cell membranes, KAN-TS, Membrane; conditions: kan-ts; note: in other assays of this panel Not Active means under 50% inhibition at 10 µM
T3 sequence (P49146 whole entry): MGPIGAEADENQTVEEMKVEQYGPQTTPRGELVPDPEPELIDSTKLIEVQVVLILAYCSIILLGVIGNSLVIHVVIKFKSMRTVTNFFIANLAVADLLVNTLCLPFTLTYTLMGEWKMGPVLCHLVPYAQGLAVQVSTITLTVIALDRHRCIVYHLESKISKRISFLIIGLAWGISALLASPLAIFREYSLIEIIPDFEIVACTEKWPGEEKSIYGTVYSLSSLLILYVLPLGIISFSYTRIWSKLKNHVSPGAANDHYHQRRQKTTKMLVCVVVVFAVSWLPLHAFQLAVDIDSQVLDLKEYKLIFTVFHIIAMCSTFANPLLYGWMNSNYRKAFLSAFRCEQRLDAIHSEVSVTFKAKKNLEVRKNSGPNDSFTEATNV

[5] = target: Delta-type opioid receptor (Homo sapiens, UniProt P41143); assay type: cell membranes, Membrane; conditions: hek293; note: in other assays of this panel Not Active means under 50% inhibition at 10 µM
[6] = DRUGMATRIX: Tumor Necrosis Factor (TNF), Non-Selective radioligand binding (ligand: [125I] TNF-alpha); assay type: cell membranes, Membrane; conditions: u-937; Not Active = under 50% inhibition at 10 µM
[7] = target: Vasopressin V1a receptor (Homo sapiens, UniProt P37288); assay type: cell membranes, Membrane; conditions: hek293; note: in other assays of this panel Not Active means under 50% inhibition at 10 µM
[8] = DRUGMATRIX: Phorbol Ester radioligand binding (ligand: [3H] PDBu); assay type: cell membranes, Mus musculus, ICR, Brain, Membrane; conditions: Not Active = under 50% inhibition at 10 µM
[9] = DRUGMATRIX: Phosphodiesterase PDE4 enzyme inhibition (substrate: [3H]cAMP + cAMP); conditions: u-937; Not Active = under 50% inhibition at 10 µM

Sequence of Cytochrome P450 2E1 (P05181 whole entry): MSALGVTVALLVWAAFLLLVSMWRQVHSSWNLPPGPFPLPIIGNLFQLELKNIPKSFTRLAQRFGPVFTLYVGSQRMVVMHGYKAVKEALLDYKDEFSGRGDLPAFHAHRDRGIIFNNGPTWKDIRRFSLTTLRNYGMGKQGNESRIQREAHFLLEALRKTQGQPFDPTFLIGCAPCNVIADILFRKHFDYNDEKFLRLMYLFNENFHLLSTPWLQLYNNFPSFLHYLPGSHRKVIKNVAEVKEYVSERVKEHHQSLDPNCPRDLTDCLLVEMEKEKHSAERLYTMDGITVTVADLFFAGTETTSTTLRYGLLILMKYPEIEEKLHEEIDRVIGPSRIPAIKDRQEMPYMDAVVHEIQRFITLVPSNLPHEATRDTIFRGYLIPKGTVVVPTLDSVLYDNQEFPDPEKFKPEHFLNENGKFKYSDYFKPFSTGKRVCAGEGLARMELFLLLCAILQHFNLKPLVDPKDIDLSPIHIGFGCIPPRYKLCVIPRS
Sequence of Delta-type opioid receptor (P41143 whole entry): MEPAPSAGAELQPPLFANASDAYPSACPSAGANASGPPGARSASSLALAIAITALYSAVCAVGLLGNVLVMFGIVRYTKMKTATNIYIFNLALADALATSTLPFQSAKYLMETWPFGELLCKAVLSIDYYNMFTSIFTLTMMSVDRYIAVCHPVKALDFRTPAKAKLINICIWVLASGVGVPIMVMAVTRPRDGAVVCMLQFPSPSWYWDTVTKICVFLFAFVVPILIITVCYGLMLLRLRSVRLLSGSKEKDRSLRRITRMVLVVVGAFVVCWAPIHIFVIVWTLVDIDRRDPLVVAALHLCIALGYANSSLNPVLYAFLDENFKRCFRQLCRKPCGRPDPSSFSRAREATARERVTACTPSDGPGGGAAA
Sequence of Vasopressin V1a receptor (P37288 whole entry): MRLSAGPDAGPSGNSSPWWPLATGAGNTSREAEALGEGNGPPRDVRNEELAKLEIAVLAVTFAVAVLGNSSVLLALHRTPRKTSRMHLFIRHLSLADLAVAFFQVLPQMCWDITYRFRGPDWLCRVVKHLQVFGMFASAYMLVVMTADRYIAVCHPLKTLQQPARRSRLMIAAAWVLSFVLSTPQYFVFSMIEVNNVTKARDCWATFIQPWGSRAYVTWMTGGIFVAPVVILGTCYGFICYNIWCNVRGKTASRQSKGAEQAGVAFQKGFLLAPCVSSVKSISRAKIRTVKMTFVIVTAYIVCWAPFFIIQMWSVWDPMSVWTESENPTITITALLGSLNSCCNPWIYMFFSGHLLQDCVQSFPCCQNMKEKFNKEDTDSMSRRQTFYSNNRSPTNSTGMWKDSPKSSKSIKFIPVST

Nc1ccn([C@@H]2O[C@H](CO)[C@@H](O)[C@@H]2O)c(=O)n1 [CYTARABINE]
Not Active: IC50 [1] | Ki [1] | IC50 [2] | IC50 [3] | IC50 [4] | IC50 [5] | IC50 [6] | Ki [6] | IC50 [7] | IC50 [8] | Ki [8] | IC50 [9] | Ki [9]

C[C@@H]1C[C@H]2[C@@H]3CCC4=CC(=O)C=C[C@]4(C)[C@@]3(F)[C@@H](O)C[C@]2(C)[C@H]1C(=O)CO [DESOXIMETASONE]
Not Active: IC50 [1] | Ki [1] | IC50 [2] | IC50 [3] | IC50 [4] | IC50 [5] | IC50 [6] | Ki [6] | IC50 [7] | IC50 [8] | Ki [8] | IC50 [9] | Ki [9]

C[C@@H]1C[C@H]2[C@@H]3CCC4=CC(=O)C=C[C@]4(C)[C@@]3(F)[C@@H](O)C[C@]2(C)[C@@]1(O)C(=O)CO [DEXAMETHASONE]
Not Active: IC50 [1] | Ki [1] | IC50 [2] | IC50 [3] | IC50 [4] | IC50 [5] | IC50 [6] | Ki [6] | IC50 [7] | IC50 [8] | Ki [8] | IC50 [9] | Ki [9]

CN(C)CC[C@@H](c1ccc(Cl)cc1)c1ccccn1 [DEXCHLORPHENIRAMINE]
Not Active: IC50 [1] | Ki [1] | IC50 [2] | IC50 [3] | IC50 [4] | IC50 [5] | IC50 [6] | Ki [6] | IC50 [7] | IC50 [8] | Ki [8] | IC50 [9] | Ki [9]

C[C@@H]1CC[C@@]2(OC1)O[C@H]1[C@@H](O)[C@H]3[C@@H]4CC[C@H]5C[C@@H](O[C@@H]6O[C@H](CO)[C@H](O[C@@H]7O[C@H](CO)C(O)[C@H](O[C@@H]8OC[C@@H](O)[C@H](O)[C@H]8O)[C@H]7O[C@@H]7O[C@H](CO)[C@H](O)[C@H](O[C@@H]8O[C@H](CO)[C@@H](O)[C@H](O)[C@H]8O)[C@H]7O)[C@H](O)[C@H]6O)[C@H](O)C[C@]5(C)[C@H]4CC[C@]3(C)[C@H]1[C@@H]2C (stereo not given in full) [DIGITONIN]
Not Active: IC50 [1] | Ki [1] | IC50 [2] | IC50 [3] | IC50 [4] | IC50 [5] | IC50 [6] | Ki [6] | IC50 [7] | IC50 [8] | Ki [8] | IC50 [9] | Ki [9]

OC(CCCN1CCCCC1)(c1ccccc1)c1ccccc1 [DIPHENIDOL]
Not Active: IC50 [1] | Ki [1] | IC50 [2] | IC50 [3] | IC50 [4] | IC50 [5] | IC50 [6] | Ki [6] | IC50 [7] | IC50 [8] | Ki [8] | IC50 [9] | Ki [9]

C[C@H]1O[C@@H](n2cc(F)c(=O)[nH]c2=O)[C@H](O)[C@@H]1O [DOXIFLURIDINE]
Not Active: IC50 [1] | Ki [1] | IC50 [2] | IC50 [3] | IC50 [4] | IC50 [5] | IC50 [6] | Ki [6] | IC50 [7] | IC50 [8] | Ki [8] | IC50 [9] | Ki [9]

Cn1c(=O)c2c(ncn2CC(O)CO)n(C)c1=O (stereo not given) [DYPHYLLINE]
Not Active: IC50 [1] | Ki [1] | IC50 [2] | IC50 [3] | IC50 [4] | IC50 [5] | IC50 [6] | Ki [6] | IC50 [7] | IC50 [8] | Ki [8] | IC50 [9] | Ki [9]

CC[C@H]1CN2CCc3cc(OC)c(OC)cc3[C@@H]2C[C@@H]1C[C@H]1NCCc2cc(OC)c(OC)cc21 [EMETINE]
Not Active: IC50 [1] | Ki [1] | IC50 [2] | IC50 [3] | IC50 [4] | IC50 [5] | IC50 [6] | Ki [6] | IC50 [7] | IC50 [8] | Ki [8] | IC50 [9] | Ki [9]

C[C@@H](CO)NC(=O)[C@@H]1C=C2c3cccc4[nH]cc(c34)C[C@H]2N(C)C1 [ERGONOVINE]
Not Active: IC50 [1] | Ki [1] | IC50 [2] | IC50 [3] | IC50 [4] | IC50 [5] | IC50 [6] | Ki [6] | IC50 [7] | IC50 [8] | Ki [8] | IC50 [9] | Ki [9]
